Legend:
Format in all cases: in vivo
[1] = test system: Surinam grass (Brachiaria decumbens); assay: Test C pre/postemergence; settings: Postemergence; for Surinam Grass plant response rating: 125 g ai/ha, scale 0 to 100 (0 no effect, 100 complete control)
From the text: (§1) Seeds or nutlets of plant species selected from bermudagrass (Cynodon dactylon), Surinam grass (Brachiaria decumbens), cocklebur (Xanthium strumarium), corn (Zea mays), crabgrass (Digitaria sanguinalis), woolly cupgrass (Eriochloa villosa), giant foxtail (Setaria faberii), goosegrass (Eleusine indica), johnsongrass (Sorghum halepense), kochia (Kochia scoparia), lambsquarters (Chenopodium album), morningglory (Ipomoea coccinea), eastern black nightshade (Solanum ptycanthum), yellow nutsedge (Cyperus esculentus), pigweed (Amaranthus retroflexus), common ragweed (Ambrosia elatior), soybean (Glycine max), common (oilseed) sunflower (Helianthus annuus), and velvetleaf (Abutilon theophrasti) were planted and treated preemergence with test chemicals formulated in a non-phytotoxic solvent mixture which included a surfactant.
(§2) At the same time, plants selected from these crop and weed species and also winter barley (Hordeum vulgare), blackgrass (Alopecurus myosuroides), canarygrass (Phalaris minor), chickweed (Stellaria media), downy brome (Bromus tectorum), green foxtail (Setaria viridis), Italian ryegrass (Lolium multiflorum), wheat (Triticum aestivum), wild oat (Avena fatua) and windgrass (Apera spica-venti) were treated with postemergence applications of some of the test chemicals formulated in the same manner. Plants ranged in height from 2 to 18 cm (1- to 4-leaf stage) for postemergence treatments. Plant species in the flooded paddy test consisted of rice (Oryza sativa), umbrella sedge (Cyperus difformis), duck salad (Heteranthera limosa) and barnyardgrass (Echinochloa crus-galli) grown to the 2-leaf stage for testing. Treated plants and controls were maintained in a greenhouse for 12 to 14 days, after which time all species were compared to controls and visually evaluated. Plant response ratings, summarized in Table C, are based on a scale of 0 to 100 where 0 is no effect and 100 is complete control. A dash (-) response means no test result.

[2] = test system: common ragweed (Ambrosia elatior); assay: Test C pre/postemergence; settings: Postemergence; for Ragweed plant response rating: 125 g ai/ha, scale 0 to 100 (0 no effect, 100 complete control)
From the text: as §1, §2

[3] = test system: giant foxtail (Setaria faberii); assay: Test C pre/postemergence; settings: Postemergence; for Foxtail, Giant plant response rating: 125 g ai/ha, scale 0 to 100 (0 no effect, 100 complete control)
From the text: as §1, §2

[4] = test system: johnsongrass (Sorghum halepense); assay: Test C pre/postemergence; settings: Postemergence; for Johnsongrass plant response rating: 125 g ai/ha, scale 0 to 100 (0 no effect, 100 complete control)
From the text: as §1, §2

kochia (Kochia scoparia) = assay: Test C pre/postemergence; settings: Postemergence; for Kochia plant response rating: 125 g ai/ha, scale 0 to 100 (0 no effect, 100 complete control)
From the text: as §1, §2

[5] = test system: morningglory (Ipomoea coccinea); assay: Test C pre/postemergence; settings: Postemergence; for Morningglory plant response rating: 125 g ai/ha, scale 0 to 100 (0 no effect, 100 complete control)
From the text: as §1, §2

[6] = test system: pigweed (Amaranthus retroflexus); assay: Test C pre/postemergence; settings: Postemergence; for Pigweed plant response rating: 125 g ai/ha, scale 0 to 100 (0 no effect, 100 complete control)
From the text: as §1, §2

soybean (Glycine max) = assay: Test C pre/postemergence; settings: Postemergence; for Soybean plant response rating: 125 g ai/ha, scale 0 to 100 (0 no effect, 100 complete control)
From the text: as §1, §2

[7] = test system: woolly cupgrass (Eriochloa villosa); assay: Test C pre/postemergence; settings: Postemergence; for Cupgrass, Woolly plant response rating: 125 g ai/ha, scale 0 to 100 (0 no effect, 100 complete control)
From the text: as §1, §2

[8] = test system: yellow nutsedge (Cyperus esculentus); assay: Test C pre/postemergence; settings: Postemergence; for Nutsedge, Yellow plant response rating: 125 g ai/ha, scale 0 to 100 (0 no effect, 100 complete control)
From the text: as §1, §2

[9] = test system: chickweed (Stellaria media); assay: Test C postemergence; settings: for Chickweed plant response rating: 125 g ai/ha, scale 0 to 100 (0 no effect, 100 complete control)
From the text: as §1, §2

## CCOC(=O)c1nc(-c2ccc(I)cc2)nc(N)c1Cl [Compound 133]
[1]; 16 g ai/ha
  Plant response rating (scale of 0 to 100), Surinam Grass: 35
[1]; 31 g ai/ha
  Plant response rating (scale of 0 to 100), Surinam Grass: 45
[1]; 62 g ai/ha
  Plant response rating (scale of 0 to 100), Surinam Grass: 55
[1]
  Surinam Grass plant response rating: 70
[2]; 16 g ai/ha
  Plant response rating (scale of 0 to 100), Ragweed: 80
[2]; 31 g ai/ha
  Plant response rating (scale of 0 to 100), Ragweed: 80
[2]; 62 g ai/ha
  Plant response rating (scale of 0 to 100), Ragweed: 85
[2]
  Ragweed plant response rating: 95
[3]; 16 g ai/ha
  Plant response rating (scale of 0 to 100), Foxtail, Giant: 15
[3]; 31 g ai/ha
  Plant response rating (scale of 0 to 100), Foxtail, Giant: 60
[3]; 62 g ai/ha
  Plant response rating (scale of 0 to 100), Foxtail, Giant: 70
[3]
  Foxtail, Giant plant response rating: 75
[4]; 16 g ai/ha
  Plant response rating (scale of 0 to 100), Johnsongrass: 70
[4]; 31 g ai/ha
  Plant response rating (scale of 0 to 100), Johnsongrass: 85
[4]; 62 g ai/ha
  Plant response rating (scale of 0 to 100), Johnsongrass: 90
[4]
  Johnsongrass plant response rating: 95
Kochia (Kochia scoparia); 16 g ai/ha
  Plant response rating (scale of 0 to 100), Kochia: 75
Kochia (Kochia scoparia); 31 g ai/ha
  Plant response rating (scale of 0 to 100), Kochia: 80
Kochia (Kochia scoparia); 62 g ai/ha
  Plant response rating (scale of 0 to 100), Kochia: 85
Kochia (Kochia scoparia)
  Kochia plant response rating: 85
[5]; 16 g ai/ha
  Plant response rating (scale of 0 to 100), Morningglory: 80
[5]; 31 g ai/ha
  Plant response rating (scale of 0 to 100), Morningglory: 90
[5]; 62 g ai/ha
  Plant response rating (scale of 0 to 100), Morningglory: 100
[5]
  Morningglory plant response rating: 100
[6]; 16 g ai/ha
  Plant response rating (scale of 0 to 100), Pigweed: 85
[6]; 31 g ai/ha
  Plant response rating (scale of 0 to 100), Pigweed: 85
[6]; 62 g ai/ha
  Plant response rating (scale of 0 to 100), Pigweed: 95
[6]
  Pigweed plant response rating: 100
Soybean (Glycine max); 16 g ai/ha
  Plant response rating (scale of 0 to 100), Soybean: 95
Soybean (Glycine max); 31 g ai/ha
  Plant response rating (scale of 0 to 100), Soybean: 95
Soybean (Glycine max); 62 g ai/ha
  Plant response rating (scale of 0 to 100), Soybean: 100
Soybean (Glycine max)
  Soybean plant response rating: 100
[7]; 16 g ai/ha
  Plant response rating (scale of 0 to 100), Cupgrass, Woolly: 35
[7]; 31 g ai/ha
  Plant response rating (scale of 0 to 100), Cupgrass, Woolly: 50
[7]; 62 g ai/ha
  Plant response rating (scale of 0 to 100), Cupgrass, Woolly: 60
[7]
  Cupgrass, Woolly plant response rating: 70
[8]; 16 g ai/ha
  Plant response rating (scale of 0 to 100), Nutsedge, Yellow: 60
[8]; 31 g ai/ha
  Plant response rating (scale of 0 to 100), Nutsedge, Yellow: 75
[8]; 62 g ai/ha
  Plant response rating (scale of 0 to 100), Nutsedge, Yellow: 75
[8]
  Nutsedge, Yellow plant response rating: 80
[9]; 16 g ai/ha
  Plant response rating (scale of 0 to 100), Chickweed: 0
[9]; 31 g ai/ha
  Plant response rating (scale of 0 to 100), Chickweed: 10
[9]; 62 g ai/ha
  Plant response rating (scale of 0 to 100), Chickweed: 20
[9]
  Chickweed plant response rating: 45

## Nc1nc(-c2ccc(Cl)cc2)nc(C(=O)O)c1Br [Compound 88]
[1]; 31 g ai/ha
  Plant response rating (scale of 0 to 100), Surinam Grass: 45
[1]; 62 g ai/ha
  Plant response rating (scale of 0 to 100), Surinam Grass: 60
[1]
  Surinam Grass plant response rating: 80
[1]; 250 g ai/ha, scale 0 to 100
  Plant response rating, Surinam Grass: 85
[2]; 31 g ai/ha
  Plant response rating (scale of 0 to 100), Ragweed: 90
[2]; 62 g ai/ha
  Plant response rating (scale of 0 to 100), Ragweed: 100
[2]
  Ragweed plant response rating: 100
[2]; 250 g ai/ha, scale 0 to 100
  Plant response rating, Ragweed: 100
[3]; 31 g ai/ha
  Plant response rating (scale of 0 to 100), Foxtail, Giant: 55
[3]; 62 g ai/ha
  Plant response rating (scale of 0 to 100), Foxtail, Giant: 75
[3]
  Foxtail, Giant plant response rating: 80
[3]; 250 g ai/ha, scale 0 to 100
  Plant response rating, Foxtail, Giant: 85
[4]; 31 g ai/ha
  Plant response rating (scale of 0 to 100), Johnsongrass: 30
[4]; 62 g ai/ha
  Plant response rating (scale of 0 to 100), Johnsongrass: 45
[4]
  Johnsongrass plant response rating: 75
[4]; 250 g ai/ha, scale 0 to 100
  Plant response rating, Johnsongrass: 85
Kochia (Kochia scoparia); 31 g ai/ha
  Plant response rating (scale of 0 to 100), Kochia: 85
Kochia (Kochia scoparia); 62 g ai/ha
  Plant response rating (scale of 0 to 100), Kochia: 95
Kochia (Kochia scoparia)
  Kochia plant response rating: 95
Kochia (Kochia scoparia); 250 g ai/ha, scale 0 to 100
  Plant response rating, Kochia: 95
[5]; 31 g ai/ha
  Plant response rating (scale of 0 to 100), Morningglory: 60
[5]
  Morningglory plant response rating: 85
[5]; 250 g ai/ha, scale 0 to 100
  Plant response rating, Morningglory: 85
[6]; 31 g ai/ha
  Plant response rating (scale of 0 to 100), Pigweed: 95
[6]; 62 g ai/ha
  Plant response rating (scale of 0 to 100), Pigweed: 100
[6]
  Pigweed plant response rating: 100
[6]; 250 g ai/ha, scale 0 to 100
  Plant response rating, Pigweed: 100
Soybean (Glycine max); 31 g ai/ha
  Plant response rating (scale of 0 to 100), Soybean: 100
Soybean (Glycine max); 62 g ai/ha
  Plant response rating (scale of 0 to 100), Soybean: 100
Soybean (Glycine max)
  Soybean plant response rating: 100
Soybean (Glycine max); 250 g ai/ha, scale 0 to 100
  Plant response rating, Soybean: 100
[7]; 31 g ai/ha
  Plant response rating (scale of 0 to 100), Cupgrass, Woolly: 70
[7]; 62 g ai/ha
  Plant response rating (scale of 0 to 100), Cupgrass, Woolly: 75
[7]
  Cupgrass, Woolly plant response rating: 85
[7]; 250 g ai/ha, scale 0 to 100
  Plant response rating, Cupgrass, Woolly: 85
[8]; 31 g ai/ha
  Plant response rating (scale of 0 to 100), Nutsedge, Yellow: 40
[8]; 62 g ai/ha
  Plant response rating (scale of 0 to 100), Nutsedge, Yellow: 45
[8]
  Nutsedge, Yellow plant response rating: 55
[8]; 250 g ai/ha, scale 0 to 100
  Plant response rating, Nutsedge, Yellow: 75
[9]; 31 g ai/ha
  Plant response rating (scale of 0 to 100), Chickweed: 80
[9]; 62 g ai/ha
  Plant response rating (scale of 0 to 100), Chickweed: 100
[9]
  Chickweed plant response rating: 100
[9]; 250 g ai/ha, scale 0 to 100
  Plant response rating, Chickweed: 100
